± gives the expanded uncertainty stated by the source.
Experiment: refractive index (Na D-line) (dimensionless)
Conditions: 294.15 K; 100 kPa; Liquid; Standard Abbe refractometry

In order of falling refractive index:
1. CCCCO [butan-1-ol]  1.39782 ± 0.00042
2. CCCO [propan-1-ol]  1.3846 ± 0.00042
3. O [water]  1.33285 ± 0.00042

From the NIST ThermoML archive (doi:10.1021/acs.jced.5b01024)
